Results: patent publication US5977065A, “Bacterial nitroreductase for the reduction of CB1954 and analogues thereof to a cytotoxic form” (Cancer Research Campaign Technology Limited, priority 1991, dated 1999)
*1 amine or outer side, *2 acyl side, *3 side chain or, on linkers, in order; H or OH if unused. Where a SMILES comes first, the peptide text is derived from it. Bridges are numbered along the chain shown (N, C = ends). Roman numbers before positions name the chains, in order. [ ]: non-standard residue; d: D form. Actinocin(9to1) = Cc1c2oc3c(C)ccc(C(=O)[*:1])c3nc-2c(C(=O)[*:2])c(N)c1=O; NMeV = CN[C@H](C(=O)O)C(C)C; Sar = CNCC(=O)O

How the values were obtained:
E. coli nitroreductase [1] = target: T1, E. coli nitroreductase (Escherichia coli, UniProt P38489); test: Substrate specificity: relative rate of NADH oxidation by HPLC (Table 5); assay type: biochemical; conditions: relative to CB 1954; 37° C. in air, NADH 500 μM, substrate 100 μM
T1 construct: endogenous in cells; host or cells: E. coli B cell paste; endogenous enzyme purified by Phenyl-Sepharose and Q-Sepharose chromatography, not recombinant
Protocol: The ability of the E. coli nitroreductase of the invention to reduce nitro-compounds other than CB 1954 was determined by HPLC by following the decrease in the peak area of NADH resulting from its oxidation. The experiments were carried out as above but the aliquots were injected onto a Partisphere SAX (110×4.7 mm) HPLC column and eluted isocratically (1 ml/min) with 75 mM NaH2 PO4.
The relative rates of reduction of various nitrobenzamides and
nitrobenzenes with E. coli nitroreductase enzyme. Reduction
rates were determined by the resulting oxidation of NADH. All
reactions were carried out at 37° C. in air, with NADH (500
electron donor, at an initial substrate concentration of 100 μM.

E. coli nitroreductase [2] = target: T1, E. coli nitroreductase; test: % drug reduction in the V79 incubations, remaining prodrug by HPLC (Table 8); assay type: biochemical
Protocol: (§1) Generation of cytotoxicity by the action of the E. coli nitroreductase of Example 1 upon the prodrugs 4-[bis(2-chloroethyl)amino]phenylcarbamic acid 4'-nitrobenzyl ester (I where R^1 NH2 =III) and N-4-nitrobenzyloxy-carbonyl-actinomycin D (V) are shown in Table 8.
(§2) The effect of enzyme-activated prodrugs on the survival of V79
(§3) cells. 1 ml volumes of V79 cells (2 × 10^5 /ml) were incubated
(§4) with prodrug, 500 μM NADH, and 10 μg/ml enzyme. After a 2 hour
(§5) incubation at 37° C., the cells were harvested and assayed for
(§6) their colony forming ability, and the supernatant assayed for
(§7) the concentration of remaining prodrug by HPLC.

V79 cells [3] = test: Survival (colony forming ability) of V79 cells with enzyme-activated prodrugs (Table 8); assay type: cell-based
Protocol: as §1, §2, §3, §4, §5, §6, §7

E. coli B nitroreductase [4] = target: T2, E. coli B nitroreductase (Escherichia coli, UniProt P38489); test: Enzyme kinetic and inhibition studies; assay type: biochemical
T2 construct: endogenous in cells; host or cells: E. coli B cell paste; endogenous enzyme purified by Phenyl-Sepharose and Q-Sepharose chromatography, not recombinant
Protocol: Protein concentration was determined using the a conventional protein assay (Bio-Rad) calibrated against bovine serum albumin.

[5] = In vivo toxicity of prodrug in mice; conditions: for deaths: dose 10 mg/kg i.p., groups of 3 mice, 10 mg/kg
Protocol: The actinomycin D prodrug (AMDPD) of formula V was tested for toxicity in mice. Groups of 3 mice were given 1, 10 or 100 mg/kg body weight i.p. of AMPD, and two further groups of 3 mice were given 1 and 10 mg/kg body weight i.p. of actinomycin D (AMD) dissolved in arachis oil. A further group of 3 mice were untreated, and a final group of 3 mice were given arachis oil i.p. only.
The body weight of the mice were monitored over 9 days. All mice treated with 10 mg/kg of AMD were dead by day 1. […] In practice, the toxicity of AMDPD is likely to be even lower, since the preparation of AMDPD used contains about 1% unconverted AMD.

E. coli B nitroreductase [6] = target: T2, E. coli B nitroreductase; test: % drug reduction in the MAWI incubations, remaining prodrug by HPLC (Table 7); assay type: biochemical
Protocol: (§8) The effect of enzyme-activated prodrugs on the survival of MAWI
(§9) cells. 1 ml volumes of MAWI cells (2 × 10^5 /ml) were
(§10) with 50 μM prodrug, 500 μM NADH, and 10 μg/ml the enzyme of
(§11) Example 1. After a 2 hour incubation at 37° C., the cells were
(§12) harvested and assayed for their colony forming ability, and the
(§13) supernatant assayed for the concentration of remaining prodrug

MAWI cells = test: Survival (colony forming ability) of MAWI cells with enzyme-activated prodrugs (Table 7); assay type: cell-based, human
Protocol: as §8, §9, §10, §11, §12, §13

CC1=CC(=O)c2ccccc2C1=O = test: Enzyme kinetic and inhibition studies; assay type: biochemical, E. coli B
[7] = tested on: NC(=O)c1cc(N2CC2)c([N+](=O)[O-])cc1[N+](=O)[O-]; test: Enzyme kinetic and inhibition studies; assay type: biochemical, E. coli B
V79 cells [8] = test: Survival (colony-forming ability) of V79 cells treated with CB 1954 in the presence of E. coli B nitroreductase (Table 4); assay type: cell-based, Hamster; conditions: nitroreductase 2 μg/ml
Protocol: E. coli B nitroreductase. All treatments were for 2 hours at 37°
cells were then plated out for their resulting colony-forming ability.
nitroreductase concentration was 2 μg/ml and NADH was used as a […]

Enzyme kinetic studies [9] = substrate: CC1=CC(=O)c2ccccc2C1=O; test: Enzyme kinetic studies; assay type: biochemical
Protocol: (§14) Quinone reductase activities were assayed by a spectrophotometric method using menadione as a substrate and cytochrome c as a terminal electron acceptor as described in Knox et al, Biochem. Pharmacol., 37, 4671-4677, 1988. Initial rates of reaction were determined by linear regression analysis (r>0.995) and kinetic parameters determined from the resulting plots as described by Roberts et al, Biochem. Pharmacol. 38, 4137-4143, 1989. Protein concentration was determined using the a conventional protein assay (Bio-Rad) calibrated against bovine serum albumin.
(§15) Kinetic parameters for the E. coli nitroreductase and Walker NAD(P)H, dehydrogenase (quinone) EC. […] The absolute rates of reduction of CB 1954 (i.e. under saturating conditions) by the two enzymes is their kcat values and this is 90 fold higher for the E. coli nitroreductase.

Enzyme kinetic studies [10] = substrate: NC(=O)c1cc(N2CC2)c([N+](=O)[O-])cc1[N+](=O)[O-]; test: Enzyme kinetic studies; assay type: biochemical
Protocol: as §14, §15

[11] = NR 10 μg/ml + 50 μM prodrug + 500 μM NADH
[12] = NR + prodrug + NADH, prodrug concentration not given

## O=[N+]([O-])c1ccc(O)c([N+](=O)[O-])c1 [2,4-dinitrophenol]
E. coli nitroreductase [1]
  RELATIVE RATE OF NADH OXIDATION NR: < 0.01

## O=C(Nc1ccc(N(CCCl)CCCl)cc1)OCc1ccc([N+](=O)[O-])cc1 [I where R^1 NH2 = III, 4-[Bis(2-chloroethyl)amino]phenylcarbamic acid 4'-nitrobenzyl ester]
E. coli nitroreductase [2]; 50 μM prodrug alone
  % DRUG REDUCTION: < 1.0%
E. coli nitroreductase [2]; [11]
  % DRUG REDUCTION: 30%
V79 cells [3]; 50 μM prodrug alone
  % SURVIVAL: 27.1%

## NC(=O)c1ccc([N+](=O)[O-])cc1 [4-nitrobenzamide]
E. coli nitroreductase [1]
  RELATIVE RATE OF NADH OXIDATION NR: 5.1

## NC(=O)c1cc(N2CC2)c([N+](=O)[O-])cc1N [2-amino-5-(aziridin-1-yl)-4-nitrobenzamide]
E. coli nitroreductase [1]
  RELATIVE RATE OF NADH OXIDATION NR: < 0.01

## CC1=CC(=O)c2ccccc2C1=O [MENADIONE, menadione]
E. coli B nitroreductase [4]
  Km of nitroreductase for menadione higher than Walker enzyme: 60 fold

## NC(=O)c1cc(Cl)c([N+](=O)[O-])cc1[N+](=O)[O-] [5-chloro-2,4-dinitrobenzamide]
E. coli nitroreductase [1]
  RELATIVE RATE OF NADH OXIDATION NR: 22.4

## NC(=O)c1ccccc1[N+](=O)[O-] [2-nitrobenzamide]
E. coli nitroreductase [1]
  RELATIVE RATE OF NADH OXIDATION NR: 0.06

## NC(=O)c1cc(NCCO)c([N+](=O)[O-])cc1[N+](=O)[O-] [2,4-dinitro-5-(2-hydroxyethylamino)benzamide]
E. coli nitroreductase [1]
  RELATIVE RATE OF NADH OXIDATION NR: 0.04

## Cc1c2oc3c(C)ccc(C(=O)N[C@@H]4C(=O)N[C@H](C(C)C)C(=O)N5CCC[C@H]5C(=O)N(C)CC(=O)N(C)[C@@H](C(C)C)C(=O)O[C@@H]4C)c3nc-2c(C(=O)N[C@@H]2C(=O)N[C@H](C(C)C)C(=O)N3CCC[C@H]3C(=O)N(C)CC(=O)N(C)[C@@H](C(C)C)C(=O)O[C@@H]2C)c(N)c1=O [AMD, actinomycin D] (I: T[dV]P[Sar][NMeV] / II: T[dV]P[Sar][NMeV]; ester I:1-I:C, II:1-II:C; linker I:N-II:N via Actinocin(9to1))
[5]; dose 1.0 mg/kg i.p., mice
  Weight as % of Day 0, Day 2: 98.6%
  Weight as % of Day 0, Day 3: 95%
  Weight as % of Day 0, Day 7: 101.6%
  Weight as % of Day 0, Day 9: 103%
[5]
  deaths: dead by day 1
[5]; listed as Active Drug
  deaths: All dead on day 1

## NC(=O)c1cccc([N+](=O)[O-])c1 [3-nitrobenzamide]
E. coli nitroreductase [1]
  RELATIVE RATE OF NADH OXIDATION NR: 1.8

## NC(=O)NN=Cc1ccc([N+](=O)[O-])o1 [5-nitro-2-furaldehydesemicarbazone]
E. coli nitroreductase [1]
  RELATIVE RATE OF NADH OXIDATION NR: 3.6

## NC(=O)c1cc([N+](=O)[O-])cc([N+](=O)[O-])c1 [3,5-dinitrobenzamide]
E. coli nitroreductase [1]
  RELATIVE RATE OF NADH OXIDATION NR: 75.5

## CN(C)C(=O)c1cc(N2CC2)c([N+](=O)[O-])cc1[N+](=O)[O-] [CB 10-107]
E. coli nitroreductase [2]; [12]
  % DRUG REDUCTION: 45%
V79 cells [3]; [12]
  % SURVIVAL: 5.0%
E. coli B nitroreductase [6]; 50 μM prodrug alone
  % DRUG REDUCTION: < 1.0%
E. coli B nitroreductase [6]; NADH + prodrug, no enzyme
  % DRUG REDUCTION: < 1.0%
E. coli B nitroreductase [6]; [11]
  % DRUG REDUCTION: 45%
MAWI cells; 50 μM prodrug alone, 2 hour 37° C.
  % SURVIVAL: 85.6%
MAWI cells; NADH + prodrug, no enzyme
  % SURVIVAL: 87.9%
MAWI cells; [11]
  % SURVIVAL: 5.0%

## E. coli B nitroreductase (Escherichia coli K-12)
CC1=CC(=O)c2ccccc2C1=O
  Km: 80 µM
[7]
  Km: 862 ± 145 µM

B1: Nitroreductase (NR): flavoprotein nitroreductase isolated from E. coli B, molecular weight 24 kDa, FMN coenzyme (protein, UniProt P38489 1-217, looked up)
Oxygen-insensitive NAD(P)H …: MDIISVALKRHSTKAFDASKKLTPEQAEQIKTLLQYSPSSTNSQPWHFIVASTEEGKARVAKSAAGNYVFNERKMLDASHVVVFCAKTAMDDVWLKLVVDQEDADGRFATPEAKAANDKGRKFFADMHRKDLHDDAEWMAKQVYLNVGNFLLGVAALGLDAVPIEGFDAAILDAEFGLKEKGYTSLVVVPVGHHSVEDFNATLPKSRLPQNITLTEV
V79 cells [8]
  % SURVIVAL: 94%

B2: Walker NAD(P)H dehydrogenase (quinone) EC. 1.6.99.2 (Rattus norvegicus) (protein)
chain: AVRRALIVLAHAERTSFNYAMKEAAVEALKKKGWEVVESDLYAMNFNPLISRNDITGEPKDSENFQYPVESSLAYKEGRLSPDIVAEQKKLEAADLVIFQFPLYWFGVPAILKGWFERVLVAGFAYTYATMYDKGPFQNKKTLLSITTGGSGSMYSLQGVHGDMNVILWPIQSGILRFCGFQVLEPQLVYSIGHTPPDARVQVLEGWKKRLETVWEESPLYFAPSSLFDLNFQAGFLLKKEVQEEQKKNKFGLSVGHHLGKSIPADNQIKARK
notes: the enzyme isolated from the Walker tumour, EC.1.6.99.2; from tissue; host or cells: Walker tumour (Walker cell)
Enzyme kinetic studies [9]
  Km: 1.3 µM
Enzyme kinetic studies [10]
  Km: 826 ± 46 µM
